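How tested: cells in 96-well plates exposed to compound for 48 hours at five concentrations. GI50 = concentration required for 50% inhibition of growth.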 The source made the active and inactive calls. No stated cut-off is given here; in the data, active = GI50 up to about 1.1 µM and inactive = higher.
Tests used:
Test in all cases: growth of human tumour cells (NCI), 48 h
SNB-75 = test system: SNB-75
K562 = test system: K562
DU-145 = test system: DU-145
HOP-62 = test system: HOP-62
U-251 = test system: U-251
MDA-N = test system: MDA-N
CAKI-1 = test system: CAKI-1
NCI-H460 = test system: NCI-H460
SK-MEL-28 = test system: SK-MEL-28
UACC-62 = test system: UACC-62
MDA-MB-435 = test system: MDA-MB-435
OVCAR-5 = test system: OVCAR-5
COLO 205 = test system: COLO 205
HCT-116 = test system: HCT-116
T47D = test system: T47D
CCRF-CEM = test system: CCRF-CEM
HOP-92 = test system: HOP-92
HL-60 = test system: HL-60

Measured: GI50

O=C(CC(NC(=O)OCc1ccccc1)C(=O)NC1Cc2ccccc2C1=O)OCc1ccccc1 (configuration not stated)
inactive: SNB-75 59.3 µM | K562 > 100 µM | DU-145 > 100 µM | HOP-62 > 100 µM | U-251 > 100 µM | MDA-N > 100 µM | CAKI-1 > 100 µM | NCI-H460 > 100 µM | SK-MEL-28 > 100 µM | UACC-62 > 100 µM | MDA-MB-435 > 100 µM | OVCAR-5 > 100 µM

O=C(O)C/N=C(\C(=N\CC(=O)O)c1ccccc1)c1ccccc1
inactive: COLO 205 > 100 µM | SNB-75 > 100 µM | K562 > 100 µM | DU-145 > 100 µM | HOP-62 > 100 µM | HCT-116 > 100 µM | U-251 > 100 µM | MDA-N > 100 µM | CAKI-1 > 100 µM | T47D 68.5 µM | NCI-H460 > 100 µM | SK-MEL-28 > 100 µM | UACC-62 > 100 µM | MDA-MB-435 > 100 µM | OVCAR-5 > 100 µM

O=C(/C=C1/Nc2ccc([N+](=O)[O-])cc2N/C1=C/C(=O)c1ccc(Cl)cc1)c1ccc(Cl)cc1
inactive: CCRF-CEM 34.4 µM | COLO 205 > 100 µM | SNB-75 > 100 µM | K562 31.9 µM | DU-145 > 100 µM | HOP-62 > 100 µM | HCT-116 15 µM | U-251 > 100 µM | MDA-N > 100 µM | CAKI-1 > 100 µM | T47D > 100 µM | NCI-H460 42.9 µM | UACC-62 49.4 µM | MDA-MB-435 > 100 µM | OVCAR-5 > 100 µM

Nc1ccc2ccc(-c3ccc[nH]3)nc2n1
inactive: COLO 205 > 100 µM | SNB-75 > 100 µM | HOP-92 > 100 µM | HOP-62 > 100 µM | HCT-116 > 100 µM | U-251 > 100 µM | MDA-N > 100 µM | CAKI-1 > 100 µM | T47D > 100 µM | NCI-H460 > 100 µM | SK-MEL-28 > 100 µM | MDA-MB-435 > 100 µM | OVCAR-5 > 100 µM

CCOCCOCCOCc1nc(C#N)c(N)o1
inactive: CCRF-CEM > 100 µM | COLO 205 > 100 µM | SNB-75 > 100 µM | K562 > 100 µM | DU-145 > 100 µM | HL-60 > 100 µM | HOP-62 > 100 µM | HCT-116 > 100 µM | U-251 > 100 µM | CAKI-1 > 100 µM | T47D > 100 µM | NCI-H460 > 100 µM | SK-MEL-28 > 100 µM | UACC-62 > 100 µM | MDA-MB-435 > 100 µM | OVCAR-5 > 100 µM

COc1cccc(OC)c1NC(=O)C(=O)Nn1c(NNC(=O)c2ccncc2)nc2ccccc2c1=O
inactive: CCRF-CEM > 100 µM | SNB-75 > 100 µM | K562 > 100 µM | HOP-92 > 100 µM | HL-60 > 100 µM | HOP-62 > 100 µM | HCT-116 > 100 µM | U-251 > 100 µM | MDA-N > 100 µM | CAKI-1 > 100 µM | T47D > 100 µM | NCI-H460 > 100 µM | SK-MEL-28 > 100 µM | UACC-62 > 100 µM | MDA-MB-435 > 100 µM | OVCAR-5 > 100 µM

CCOC(=O)c1sc2c(c1OC(=O)c1ccccc1)c(=O)n(-c1ccccc1)c(=S)n2-c1ccccc1
inactive: CCRF-CEM 41.8 µM | COLO 205 > 100 µM | K562 28.4 µM | HOP-92 25.7 µM | DU-145 34.1 µM | HL-60 36 µM | HOP-62 22.9 µM | HCT-116 16.2 µM | U-251 20.3 µM | CAKI-1 97.9 µM | T47D 63.7 µM | NCI-H460 19.3 µM | SK-MEL-28 32.2 µM | UACC-62 23.7 µM | MDA-MB-435 20.9 µM | OVCAR-5 68.7 µM

Cc1ccc(S(=O)(=O)Nn2c(S)c(C#N)c(-c3ccc([N+](=O)[O-])cc3)c(C#N)c2=O)cc1
inactive: CCRF-CEM 23.2 µM | COLO 205 29.2 µM | SNB-75 56.5 µM | K562 21.2 µM | HOP-92 32.1 µM | HOP-62 98.2 µM | HCT-116 16.9 µM | U-251 29 µM | MDA-N 26.1 µM | CAKI-1 > 100 µM | NCI-H460 31 µM | SK-MEL-28 32.6 µM | UACC-62 25.8 µM | MDA-MB-435 23.2 µM | OVCAR-5 72.9 µM

O=c1c2nc[nH]c2n(-c2ccccc2)c(=S)n1-c1ccccc1
inactive: CCRF-CEM > 100 µM | COLO 205 > 100 µM | SNB-75 > 100 µM | K562 > 100 µM | DU-145 > 100 µM | HL-60 > 100 µM | HOP-62 > 100 µM | HCT-116 > 100 µM | U-251 > 100 µM | CAKI-1 > 100 µM | T47D > 100 µM | NCI-H460 > 100 µM | SK-MEL-28 > 100 µM | UACC-62 > 100 µM | MDA-MB-435 > 100 µM | OVCAR-5 > 100 µM

O=C1C2CCCCC2C(=O)N1n1c(Cc2ccc(Cl)cc2)n[nH]c1=O (configuration not stated)
inactive: CCRF-CEM > 100 µM | COLO 205 > 100 µM | SNB-75 > 100 µM | K562 > 100 µM | HOP-92 > 100 µM | HOP-62 > 100 µM | HCT-116 > 100 µM | U-251 > 100 µM | MDA-N > 100 µM | CAKI-1 > 100 µM | T47D > 100 µM | NCI-H460 > 100 µM | UACC-62 > 100 µM | MDA-MB-435 > 100 µM | OVCAR-5 > 100 µM

CCOC(=O)C(NC(=O)Nc1ccc(Cl)c(Cl)c1)C(F)(F)F (configuration not stated)
inactive: CCRF-CEM > 100 µM | COLO 205 > 100 µM | SNB-75 > 100 µM | K562 92.5 µM | HL-60 > 100 µM | HCT-116 > 100 µM | U-251 > 100 µM | MDA-N > 100 µM | T47D > 100 µM | SK-MEL-28 > 100 µM | MDA-MB-435 87.1 µM | OVCAR-5 > 100 µM

C/C(=C\c1ccc(Cl)c(Cl)c1)[N+](=O)[O-]
inactive: SNB-75 4.2 µM | K562 1.55 µM | DU-145 1.63 µM | HL-60 1.52 µM | HOP-62 2.5 µM | HCT-116 2.77 µM | U-251 1.71 µM | NCI-H460 20.7 µM | SK-MEL-28 2.31 µM | UACC-62 2.38 µM | MDA-MB-435 2.23 µM | OVCAR-5 1.96 µM

CC(C)[C@@H]1CC[C@@H](C)C[C@H]1OC(=O)c1c2n(c3ccccc13)C[C@H]1OC(C)(C)O[C@@H]21
inactive: CCRF-CEM 4.22 µM | COLO 205 72.4 µM | K562 4.53 µM | DU-145 20 µM | HL-60 5.56 µM | HOP-62 27.5 µM | HCT-116 4.36 µM | U-251 5.14 µM | MDA-N 19.7 µM | CAKI-1 26.9 µM | T47D 15.2 µM | SK-MEL-28 46.7 µM | UACC-62 18 µM | MDA-MB-435 30.5 µM | OVCAR-5 > 100 µM

Cc1cc(S(=O)(=O)Nc2n[nH]c(Nc3ccccc3)n2)c(S)cc1Cl
inactive: CCRF-CEM > 10 µM | COLO 205 > 10 µM | SNB-75 > 10 µM | K562 > 10 µM | DU-145 > 10 µM | HL-60 > 10 µM | HOP-62 > 10 µM | HCT-116 > 10 µM | U-251 > 10 µM | CAKI-1 > 10 µM | T47D > 10 µM | NCI-H460 > 10 µM | SK-MEL-28 > 10 µM | UACC-62 > 10 µM | MDA-MB-435 > 10 µM | OVCAR-5 > 10 µM

CCOC(=O)C1=C(N2CCCC2)C(=O)C(C(=O)OCC)C1 (configuration not stated)
inactive: COLO 205 > 100 µM | SNB-75 > 100 µM | K562 > 100 µM | HOP-92 > 100 µM | HOP-62 > 100 µM | HCT-116 > 100 µM | U-251 > 100 µM | MDA-N > 100 µM | CAKI-1 > 100 µM | T47D > 100 µM | NCI-H460 > 100 µM | SK-MEL-28 > 100 µM | MDA-MB-435 > 100 µM | OVCAR-5 > 100 µM

COc1ccc(/C(C)=N/NC(=O)c2ccncc2)c(OC)c1
inactive: CCRF-CEM > 10 µM | COLO 205 > 10 µM | SNB-75 > 10 µM | K562 > 10 µM | HOP-92 > 10 µM | DU-145 > 10 µM | HL-60 > 10 µM | HOP-62 > 10 µM | U-251 > 10 µM | MDA-N > 10 µM | CAKI-1 > 10 µM | T47D > 10 µM | NCI-H460 > 10 µM | SK-MEL-28 > 10 µM | UACC-62 > 10 µM

CC(C)(C)OC(=O)NC(CCCCNC(=O)OCc1ccccc1)C(=O)NC(CCCCNC(=O)OCc1ccccc1)C(=O)ON1C(=O)CCC1=O (configuration not stated)
inactive: CCRF-CEM > 100 µM | COLO 205 > 100 µM | SNB-75 > 100 µM | K562 > 100 µM | HOP-92 > 100 µM | HL-60 > 100 µM | HOP-62 > 100 µM | HCT-116 > 100 µM | U-251 > 100 µM | MDA-N > 100 µM | T47D > 100 µM | SK-MEL-28 > 100 µM | UACC-62 > 100 µM | OVCAR-5 > 100 µM

C/C(Nc1ccc(Cl)cc1Cl)=C1/CCOC1=O
inactive: CCRF-CEM 25.3 µM | COLO 205 > 100 µM | SNB-75 36.9 µM | K562 > 100 µM | HOP-92 22.8 µM | DU-145 > 100 µM | HL-60 56.5 µM | HOP-62 27 µM | HCT-116 > 100 µM | U-251 27.2 µM | T47D 46.5 µM | NCI-H460 89.5 µM | SK-MEL-28 > 100 µM | UACC-62 63.7 µM | MDA-MB-435 > 100 µM

Reference: ChEMBL document CHEMBL1201862, “PubChem BioAssay data set” (2004)
